Legend:
[1] = molar heat capacity at constant pressure; conditions: Liquid, Thermal relaxation method
[2] = Liquid, Pycnometric method

C=C(F)C(F)(F)F [2,3,3,3-tetrafluoro-1-propene]
Conditions	mass density, [2] [kg/m3]	molar heat capacity at constant pressure, [1] [J/K/mol]
310 K, 1000 kPa	1046.5	–
310 K, 2000 kPa	1056.3	165.36
310 K, 3000 kPa	1065.2	161.94
310 K, 4000 kPa	1072.8	152.82
310 K, 5000 kPa	1080.6	153.96
320 K, 2000 kPa	1013.8	173.34
320 K, 3000 kPa	1025.1	167.64
320 K, 4000 kPa	1035.3	160.8
320 K, 5000 kPa	1044.8	157.38
330 K, 2000 kPa	964.2	185.89
330 K, 3000 kPa	979.2	179.05
330 K, 4000 kPa	992.7	168.78
330 K, 5000 kPa	1004.6	163.08
340 K, 2000 kPa	903	205.27
340 K, 3000 kPa	926.7	187.03
340 K, 4000 kPa	945.3	177.9
340 K, 5000 kPa	961.3	169.92
350 K, 3000 kPa	861.8	217.82
350 K, 4000 kPa	891.3	196.15
350 K, 5000 kPa	913.1	182.47
360 K, 3000 kPa	751.9	297.65
360 K, 4000 kPa	818.5	222.38
360 K, 5000 kPa	853.9	197.29

— the NIST ThermoML archive (doi:10.1021/je900515a)
